Test results as given in patent US20020059032A1, “Rational selection of putative peptides from identified nucleotide or peptide sequences” (priority 1999, published 2002).
Where a SMILES comes first, the peptide text is derived from it.

Target: guinea pig brain membranes
Test: Binding test with guinea pig brain membranes
Settings: tested on guinea pig brain membranes; read-out: IC50 = 100 μM
Procedure: Binding Assay Alternative Protocol by Skatron
The experimental conditions are identical for all the binding assay protocols except for the fact that: i) the volume R in operation is 200 μl; ii) the test carried out in 96-well Falcon plates iii) the reaction is directly stopped by filtration on filterMat (ref. 11734) Skatron and the radioactivity associated with the filtrate is evaluated: either directly with a γ counter for the peptides labelled with […]: or with a […] in the presence of 5 ml of scintillating liquid.
Membrane Preparations of Guinea Pig Brains and Binding Assay
The guinea pigs are sacrificed by rupturing their cervical vertibrae, decapitated, and the brains are removed very rapidly and placed into a sucrose-Tris-HCl buffer (0.32 M sucrose 5 mM, Tris-HCl, 0.1 g/l bacitracin) at 4° C. (about 10 ml of buffer per brain). The brains are then homogenized using a Potter device and the homogenate is placed in incubation for 30 minutes at 37° C. under agitation, then centrifuged twice for 35 minutes at 100,000×g at 4° C. The protein content of the membrane preparations is evaluated according to the Bradford method (BioRad, according to the manufacturers protocol).
Bonding of Labelled Agonists to the Guinea Pig Brain Membrane Preparation The membranes are placed in a buffer (50 mM of Tris-HCl, 5 mM of MgCl2 and 0.1 g/l of bacitracin) at the desired protein concentration (iodized CCK bond, 0.1 mg of protein/ml; iodized gastrin bond: 0.5 mg of proteins/ml). They are then incubated in the presence of a labelled ligand in a total volume of 500 μl (about 10 pM for the iodized CCK8, 20 pM for the iodized gastrin13), 50-80 minutes at 25° C., and in the presence or absence of cold agonists. The reaction is stopped with 3 ml of additional BSA buffer (20 g/l) at 4° C., the tubes are centrifuged at 10,000×g, the supernatant is drawn off and the radioactivity associated with the precipitate is evaluated with a γ counter.

For `CSCC[C@H](NC(=O)[C@H](C)NC(=O)[C@@H](NC(=O)[C@@H](N)CCC(=O)O)C(C)C)C(=O)N[C@@H](CC(=O)O)C(=O)N[C@@H](CC(=O)O)C(=O)N[C@@H](Cc1c[nH]cn1)C(=O)N[C@@H](CCCCN)C(=O)N[C@@H](CC(C)C)C(=O)N[C@@H](CO)C(=O)N[C@@H](CC(C)C)C(=O)N[C@@H](CC(=O)O)C(=O)N[C@@H](CCC(=O)O)C(=O)N[C@@H](CC(C)C)C(N)=O` [Example 58, H-EVAMDDHKLSLDEL-NH2] (H-EVAMDDHKLSLDEL-NH2), which IC50 is on record?
The IC50 was 860 nM.

For `CSCC[C@H](NC(=O)[C@H](CC(C)C)NC(=O)CNC(=O)[C@H](Cc1ccccc1)NC(=O)[C@H](Cc1ccccc1)NC(=O)[C@H](CCC(N)=O)NC(=O)[C@H](CCC(N)=O)NC(=O)[C@@H]1CCCN1C(=O)[C@H](CCCCN)NC(=O)[C@@H]1CCCN1C(=O)[C@@H](N)Cc1ccc(O)cc1)C(N)=O` [Example 64, H-YPKPQQFFGLM-NH2] (H-YPKPQQFFGLM-NH2), which IC50 is on record?
Its IC50 is 1 nM.

How did the IC50 turn out when `CC[C@H](C)[C@H](NC(=O)[C@@H](N)C(C)C)C(=O)N[C@@H](CCC(N)=O)C(=O)N[C@@H](Cc1ccc(O)cc1)C(=O)N[C@@H](CC(C)C)C(=O)N[C@@H](C)C(=O)N[C@@H](Cc1c[nH]cn1)C(=O)N[C@H](C(=O)N[C@@H](C)C(=O)N[C@@H](CO)C(=O)N[C@@H](CO)C(=O)N[C@@H](Cc1c[nH]cn1)C(=O)N[C@@H](CCCCN)C(N)=O)C(C)C` [Example 63, H-VIQYLAHVASSHK-NH2] (H-VIQYLAHVASSHK-NH2) was run?
Its IC50 is 20 nM.

With `CC(C)C[C@H](NC(=O)[C@H](CCC(N)=O)NC(=O)[C@H](C)NC(=O)[C@@H](NC(=O)[C@H](CCC(=O)O)NC(=O)[C@H](CCC(=O)O)NC(=O)[C@H](CCCCN)NC(=O)[C@@H]1CCCN1C(=O)[C@@H]1CCCN1C(=O)[C@@H](N)CCC(=O)O)[C@@H](C)O)C(=O)N[C@H](C(=O)NCC(=O)N1CCC[C@H]1C(=O)N[C@@H](CCC(=O)O)C(=O)N[C@@H](C)C(N)=O)[C@@H](C)O` [Example 65, H-EPPKEETAQLTGPEA-NH2] (H-EPPKEETAQLTGPEA-NH2) as the compound, how does the IC50 read?
Its IC50 is 4000 nM.

Which IC50 does the source give for `CC[C@H](C)[C@H](NC(=O)[C@H](Cc1c[nH]cn1)NC(=O)[C@@H](N)CC(C)C)C(=O)N[C@@H](CO)C(=O)N[C@@H](Cc1c[nH]cn1)C(=O)N[C@@H](CC(=O)O)C(=O)N[C@@H](CCSC)C(=O)N[C@H](C(=O)NCC(=O)N1CCC[C@H]1C(=O)N[C@@H](CC(=O)O)C(N)=O)[C@@H](C)O` [Example 19, H-LHISHDMTGPD-NH2] (H-LHISHDMTGPD-NH2) here?
The IC50 was 700 nM.

How did the IC50 turn out when `CC(C)C[C@H](NC(=O)[C@H](C)NC(=O)[C@H](CCC(=O)O)NC(=O)[C@H](CCC(N)=O)NC(=O)[C@@H](N)CC(C)C)C(=O)N[C@@H](CO)C(=O)N[C@@H](CCCCN)C(=O)N[C@@H](C)C(=O)N[C@@H](C)C(N)=O` [Example 50, H-LQEALSKAA-NH2] (H-LQEALSKAA-NH2) was run?
The IC50 was 1000 nM.

Which IC50 does the source give for `CSCC[C@H](NC(=O)CNC(=O)[C@H](Cc1ccccc1)NC(=O)[C@H](CC(N)=O)NC(=O)[C@H](CCCNC(=N)N)NC(=O)[C@H](CC(C)C)NC(=O)[C@@H](NC(=O)[C@H](CCSC)NC(=O)[C@H](CC(C)C)NC(=O)[C@H](CO)NC(=O)[C@@H](N)Cc1ccccc1)[C@@H](C)O)C(N)=O` [Example 28, H-FSLMTLRNFGM-NH2] (H-FSLMTLRNFGM-NH2) here?
Its IC50 is 400 nM.

Which IC50 does the source give for `CC[C@H](C)[C@H](NC(=O)CNC(=O)[C@H](CCCCN)NC(=O)[C@H](CO)NC(=O)[C@H](Cc1ccc(O)cc1)NC(=O)[C@@H](N)CC(=O)O)C(=O)N[C@H](C(=O)N[C@H](C(=O)N[C@H](C(=O)N[C@@H](CCCCN)C(=O)N[C@@H](CC(N)=O)C(=O)N[C@@H](CC(=O)O)C(N)=O)[C@@H](C)O)C(C)C)[C@@H](C)O` [Example 62, H-DYSKGITVTKND-NH2] (H-DYSKGITVTKND-NH2) here?
Its IC50 is 670 nM.

`CSCC[C@H](NC(=O)[C@H](CCC(N)=O)NC(=O)[C@H](CC(C)C)NC(=O)[C@H](CCCCN)NC(=O)[C@@H]1CCCN1C(=O)[C@H](CC(=O)O)NC(=O)[C@H](CCC(N)=O)NC(=O)[C@@H](NC(=O)[C@@H](N)C(C)C)[C@@H](C)O)C(N)=O` [Example 8, H-VTQDPKLQM-NH2] (H-VTQDPKLQM-NH2) was tested. Which IC50 did it give?
Its IC50 is 4200 nM.
